Test results as given in patent publication US11413278B2, “Compounds and methods for promoting stress resistance” (priority 2015, dated 2022).
Read-outs that look alike come from different tables or passages of the source.

Tests used:
FOXO3 = FOXO3 siRNA knockdown: dependency for H2O2-resistance; type: cell-based, human; details: for FOXO3-dependency for H2O2-resistance (experiment 3): with & without H2O2, FOXO3 knockdown in WI-38 cells; for Assay 16: FOXO3-dependency for H2O2-resistance: YES/NO; for Requirement of FOXO3 to promote H2O2-resistance: FOXO3 siRNA, at least 2 of 3 independent experiments
[1] = test system: phosphorylated γH2A.X and TP53BP1; test: DNA damage marker analysis (immuno-staining); details: for activity at 10 µM: Homo sapiens, WI-38, 24 h; for P = Potential DNA-damaging / R = Potential DNA damaging: human, 24 h
Summary of the method: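 WI-38 cells were cultured 24 h, then treated with compounds for 24 h; H2O2 (700 μM, 3 h) and doxorubicin (300 nM, 24 h) served as DNA-damage controls. After fixation, cells were immunostained for phospho-γH2A.X (Ser-139) and phospho-TP53BP1 (Ser-1778), counterstained with DAPI, and imaged by automated high-content microscopy.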

C. elegans = C. elegans lifespan assays (liquid and plate); type: in vivo, Caenorhabditis elegans; details: for ILS at 60 µM / ILS at 66 µM: Caenorhabditis elegans; for O = Life span- extending scores in worms: score scale 0 to 2, 4 to 6 independent trials; for M = Lifespan-extending scores in worms: summary score
[2] = test system: PC12 cells expressing poly(Q)103-Htt-EGFP; test: Poly(Q) toxicity & viability analysis (cellular model of Huntington's disease); type: cell-based, rat; details: for M = Huntington's poly-Q toxicity attenuation: score; for K = Huntington's poly-Q toxicity attenuation: summary score
Summary of the method: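 PC12 cells stably carrying inducible poly(Q)103-Htt-EGFP, whose induced expression causes aggregation and toxicity. Viability read 48 hrs later as ATP content by CellTiter-Glo.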

[3] = 10 uM, YES = resistance reduced by at least 50%, partial = 25% to 50%
[4] = 10 uM, with H2O2, FOXO3 knockdown in WI-38 cells, YES = resistance reduced by at least 50%, partial = 25% to 50%
[5] = read-out: Experiment 1, H2A.X-P DNA damage foci staining (no H2O2 stress treatment), at 10 uM
[6] = read-out: Experiment 2, H2A.X-P DNA damage foci staining (no H2O2 stress treatment), at 10 uM
[7] = read-out: Experiment 2, H2A.X-P DNA damage foci staining (under H2O2 stress treatment), at 10 uM
[8] = read-out: Experiment 2, TP53BP1-P DNA damage foci staining (no H2O2 stress treatment), at 10 uM
[9] = read-out: Experiment 2, TP53BP1-P DNA damage foci staining (under H2O2 stress treatment), at 10 uM
[10] = 60 μM, in liquid, wild type, with FuDR, 1.0 × 10^9 bacteria/ml, read-out: relative change of mean lifespan vs control, Trial 1
[11] = 60 μM, in liquid, wild type, with FuDR, 2.5 × 10^9 bacteria/ml, read-out: relative change of mean lifespan vs control, Trial 2
[12] = 60 μM, on plate, CF512 temperature-sensitive sterile animals, without FuDR, 2.0 × 10^10 bacteria/ml, read-out: relative change of mean lifespan vs control, Trial 3
[13] = Assay 2(z), 1.0 × 10^9 bacteria/ml, wild type + FuDR (2012 July), read-out: Lifespan assay in liquid
[14] = Assay 3(aa), 2.5 × 10^9 bacteria/ml, wild type + FuDR, read-out: Lifespan assay in liquid
[15] = Assay 4(ab), 2.0 × 10^10 bacteria/ml, CF512 worms, no FuDR, read-out: Lifespan assay on plates

| Structure (SMILES) | FOXO3-dependency for H2O2-resistance, at 10 uM (experiment 3) - with & without H2O2 (FOXO3; 10 uM) | I = FOXO3-dependency for H2O2-resistance (FOXO3; score) | I = FOXO3-dependency for H2O2-resistance (FOXO3; summary score) | activity at 10 µM [1, 5] | activity at 10 µM [1, 6] | activity at 10 µM [1, 7] | activity at 10 µM [1, 8] | activity at 10 µM [1, 9] | P = Potential DNA-damaging [1] | R = Potential DNA damaging [1] | ILS at 60 µM (C. elegans; [10]) | ILS at 60 µM (C. elegans; [11]) | ILS at 60 µM (C. elegans; [12]) | ILS at 66 µM (C. elegans; [13]) | ILS at 66 µM (C. elegans; [14]) | ILS at 66 µM (C. elegans; [15]) | O = Life span- extending scores in worms (C. elegans) | M = Lifespan-extending scores in worms (C. elegans) | M = Huntington's poly-Q toxicity attenuation [2] | K = Huntington's poly-Q toxicity attenuation [2] | other results |
| --- | --- | --- | --- | --- | --- | --- | --- | --- | --- | --- | --- | --- | --- | --- | --- | --- | --- | --- | --- | --- | --- |
| CCCN1C/C(=C\c2ccc(F)cc2)C(=O)/C(=C/c2ccc(F)cc2)C1 [O15] | YES | 1 | 1 | 90% | 184% | 58.4% | 48.3% | 251% | 0 | 0 | 38% | 6.6% | 14.6% | 38% | 6.6% | 14.6% | 1 (1 for lifespan extension observed in 2 trials) | 1 (1 for lifespan extension observed in 2 trials) | 0 | 0 | FOXO3-dependency for H2O2-resistance, at 10 uM - with H2O2, 1st experiment (FOXO3; 10 uM, experiment 1 (1st), with H2O2): 1st, YES;; FOXO3-dependency for H2O2-resistance (experiment 3) (FOXO3; [3]): YES; FOXO3-dependency for H2O2-resistance, 1st experiment (FOXO3; [4]): YES;; Assay 16: FOXO3-dependency for H2O2-resistance (FOXO3; 10 uM): YES; Requirement of FOXO3 to promote H2O2-resistance (FOXO3): required FOXO3 |
| [O-][n+]1onc2c3nsnc3c(Br)cc21 [O17] | – | 0 | 0 | 96.7% | 72.1% | 129% | 148% | 349% | 0 | 0 | 1.7% | 22.6% | 19.7% | 1.7% | 22.6% | 19.7% | 2 (2 for observed in more than 2 trials) | 2 (2 for observed in more than 2 trials) | 0 | 0 | relative change of mean lifespan vs control, Trial 6 (confirmative) (C. elegans; 60 μM, on plate, temperature-sensitive sterile animals, without FuDR, 1.0 × 10^11 bacteria/ml): +20.8%; relative change of mean lifespan vs control, Trial 5 (confirmative) (C. elegans; 60 μM, on plate, temperature-sensitive sterile animals, without FuDR, 2.0 × 10^10 bacteria/ml): +15.2%; ILS at 60 µM (C. elegans; 60 μM, on plate, CF512 temperature-sensitive sterile animals, without FuDR, 1.0 × 10^11 bacteria/ml, read-out: relative change of mean lifespan vs control, Trial 4): 17.8%; ILS at 66 µM (C. elegans; Assay 5(ac), 1.0 × 10^11 bacteria/ml, CF512 worms, no FuDR, read-out: Lifespan assay on plates): 17.8%; ILS at 66 µM (C. elegans; Assay 6(ad), 2.0 × 10^10 bacteria/ml, CF512 worms, no FuDR, read-out: Lifespan assay on plates): 15.2%; ILS at 66 µM (C. elegans; Assay 7(ae), 1.0 × 10^11 bacteria/ml, CF512 worms, no FuDR, read-out: Lifespan assay on plates): 20.8%; Extension of C. elegans' lifespan (qualitative) (C. elegans; in at least 3 to 4 trials, group range ~10% to ~50%): could extend animal's lifespan |
| Cc1cc(C)c(C(=O)/C=C/c2ccccc2F)c(O)n1 [O18] | YES | 0 | 0 | 364% | 143% | 137% | 183% | 450% | 0 | 0 | 22.1% | 11.8% | 3.8% | 22.1% | 11.8% | 3.8% | 1 (1 for lifespan extension observed in 2 trials) | 1 (1 for lifespan extension observed in 2 trials) | 0 | 0 | FOXO3-dependency for H2O2-resistance (experiment 3) (FOXO3; [3]): YES |
| COC(=O)CCc1sc2c(c1[N+](=O)[O-])NC(=O)CCC2 [O20] | YES | 1 | 1 | 115% | 130% | 178% | 108% | 544% | 0 | 0 | 18.8% | 3.4% | 11.3% | 18.8% | 3.4% | 11.3% | 1 (1 for lifespan extension observed in 2 trials) | 1 (1 for lifespan extension observed in 2 trials) | 0 | 0 | FOXO3-dependency for H2O2-resistance, at 10 uM - with H2O2, 2nd experiment (FOXO3; 10 uM, experiment 2 (2nd), with H2O2): 2nd, YES.; FOXO3-dependency for H2O2-resistance (experiment 3) (FOXO3; [3]): YES; FOXO3-dependency for H2O2-resistance, 2nd experiment (FOXO3; [4]): YES.; Assay 16: FOXO3-dependency for H2O2-resistance (FOXO3; 10 uM): YES; Requirement of FOXO3 to promote H2O2-resistance (FOXO3): required FOXO3 |
| COc1ccc(/C=C2\SC(=N)N(c3nccs3)C2=O)cc1 [O21] | YES | 0 | 0 | 161% | 216% | 127% | 196% | 620% | 1 | 1 | 7.9% | -0.5% | 12.2% | 7.9% | -0.5% | 12.2% | 0 | 0 | 0 | 0 | FOXO3-dependency for H2O2-resistance (experiment 3) (FOXO3; [3]): YES |
